Experimental data as given in paper PMC7377239, “Cardiovascular Effects of Polychlorinated Biphenyls and Their Major Metabolites” (Environmental Health Perspectives, 2020).
Counter-ions that a name gives are not always drawn. Like-named read-outs stand apart in the source and are kept apart here.

Assays:
HUVECs = assay: High-content imaging cytotoxicity in HUVECs, 24 h; format: cell-based, human; settings: Homo sapiens, HUVEC, 24 h, HUVECs; for viability at 0.01 µM / activity at 0.01 µM / viability at 0.1 µM / activity at 0.1 µM / viability at 1 µM / activity at 1 µM / viability at 10 µM / activity at 10 µM / viability at 100 µM / activity at 100 µM: 0.00 µM = 100.00; for viability at 0.1 µM / activity at 0.1 µM: 0.10 µM; for minimal effective concentration: top concentration 100.00 µM
Procedure, shortened: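 HUVECs (passages 1–5) were plated at 750 cells/well without fibronectin, grown to a monolayer (3–5 d) and exposed to compounds for 24 h at 37°C, 5% CO2. Hoechst 33342, MitoTracker Orange and calcein AM staining was imaged at 10×; readouts were normalized to 0.5% DMSO vehicle and fit to a four-parameter logistic model.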

[1] = tested on: iCell endothelial cells (human iPSC-derived ECs); assay: High-content imaging cytotoxicity in iCell endothelial cells, 24 h; format: cell-based; settings: Homo sapiens, Endothelial cell, iPSC-EC, 24 hr; for viability at 0.1 µM / activity at 0.1 µM: 0.10 µM; for minimal effective concentration: top concentration 100.00 µM
Procedure, shortened: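 Human iPSC-derived endothelial cells (passages 1–5) were grown to a fibronectin-coated monolayer, then exposed 24 h at 37 °C with 0.5% DMSO vehicle. Staining was Hoechst 33342, MitoTracker Orange and calcein AM, read by high-content imaging. Point of departure came from 4-parameter logistic fits, with a 1-SD vehicle cutoff and 100 µM as the top concentration.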

[2] = 24 hr, read-out: huvec.cyto.24hr
[3] = 24 hr, read-out: huvec.mito.24hr
[4] = 24 hr, read-out: huvec.mitoint.24hr
[5] = 24 hr, read-out: huvec.nma.24hr
[6] = 24 hrs, read-out: huvec.tc.24hrs
[7] = 0.00 µM control = 100.00, read-out: endo.cyto.24hr
[8] = 0.00 µM control = 100.00, read-out: endo.mito.24hr
[9] = 0.00 µM control = 100.00, read-out: endo.mitoint.24hr
[10] = 0.00 µM control = 100.00, read-out: endo.nma.24hr
[11] = 0.00 µM control = 100.00, read-out: endo.tc.24hrs

O=S(=O)(O)Oc1cc(Cl)c(-c2cc(Cl)ccc2Cl)cc1Cl [4-yl PCB 52 sulfate] showed a viability at 0.01 µM (HUVECs; [2]) of 99.3%, an activity at 0.01 µM (HUVECs; [3]) of 98.2% and an activity at 0.01 µM (HUVECs; [4]) of 110%. It also gave an activity at 0.01 µM (HUVECs; [5]) of 98.4%, a viability at 0.1 µM (HUVECs; [2]) of 105% and an activity at 0.1 µM (HUVECs; [3]) of 105%. The activity at 0.1 µM (HUVECs; [4]) was 113%, the activity at 0.1 µM (HUVECs; [5]) was 96.2% and the viability at 1 µM (HUVECs; [2]) was 93.5%. The activity at 1 µM (HUVECs; [3]) was 92.9%, the activity at 1 µM (HUVECs; [4]) was 107% and the activity at 1 µM (HUVECs; [5]) was 99.1%. The viability at 10 µM (HUVECs; [2]) was 91.2%, the activity at 10 µM (HUVECs; [3]) was 89.3% and the activity at 10 µM (HUVECs; [4]) was 111%. The activity at 10 µM (HUVECs; [5]) was 98.4%, the viability at 100 µM (HUVECs; [2]) was 59.6% and the activity at 100 µM (HUVECs; [3]) was 61.8%. For the same molecule, the activity at 100 µM (HUVECs; [4]) was 74.7%, the activity at 100 µM (HUVECs; [5]) was 206% and the minimal effective concentration (HUVECs; 24 hr, read-out: huvec.cyto.24hr POD) was 5.38 µM. The minimal effective concentration (HUVECs; 24 hr, read-out: huvec.mito.24hr POD) was 3.31 µM, the minimal effective concentration (HUVECs; 24 hr, read-out: huvec.mitoint.24hr POD) was 61.2 µM and the minimal effective concentration (HUVECs; 24 hr, read-out: huvec.nma.24hr POD) was 33.9 µM. For the same molecule, the viability at 0.01 µM (HUVECs; [6]) was 99.3%, the viability at 0.1 µM (HUVECs; [6]) was 105% and the viability at 1 µM (HUVECs; [6]) was 93.5%. The viability at 10 µM (HUVECs; [6]) was 91.2%, the viability at 100 µM (HUVECs; [6]) was 61.8% and the minimal effective concentration (HUVECs; 24 hrs, read-out: huvec.tc.24hrs POD) was 5.38 µM. For the same molecule, the viability at 0.01 µM [1, 7] was 99.1%, the activity at 0.01 µM [1, 8] was 98.6% and the activity at 0.01 µM [1, 9] was 93.7%. It also gave an activity at 0.01 µM [1, 10] of 105%, a viability at 0.01 µM [1, 11] of 99.1% and a viability at 0.1 µM [1, 7] of 92.5%. The activity at 0.1 µM [1, 8] was 92.7%, the activity at 0.1 µM [1, 9] was 90.1% and the activity at 0.1 µM [1, 10] was 105%. It also gave a viability at 0.1 µM [1, 11] of 92.5%, a viability at 1 µM [1, 7] of 95.5% and an activity at 1 µM [1, 8] of 96.1%. For the same molecule, the activity at 1 µM [1, 9] was 96.9%, the activity at 1 µM [1, 10] was 102% and the viability at 1 µM [1, 11] was 95.5%. The viability at 10 µM [1, 7] was 104%, the activity at 10 µM [1, 8] was 103% and the activity at 10 µM [1, 9] was 82.8%. The activity at 10 µM [1, 10] was 99.1%, the viability at 10 µM [1, 11] was 104% and the viability at 100 µM [1, 7] was 71.2%. For the same molecule, the activity at 100 µM [1, 8] was 66.7%, the activity at 100 µM [1, 9] was 92.6% and the activity at 100 µM [1, 10] was 104%. For the same molecule, the viability at 100 µM [1, 11] was 71.4%, the minimal effective concentration ([1]; read-out: endo.cyto.24hr POD) was 41.2 µM and the minimal effective concentration ([1]; read-out: endo.mito.24hr POD) was 41.2 µM. For the same molecule, the minimal effective concentration ([1]; read-out: endo.mitoint.24hr POD) was 100 µM, the minimal effective concentration ([1]; read-out: endo.nma.24hr POD) was 100 µM and the minimal effective concentration ([1]; read-out: endo.tc.24hrs POD) was 50.3 µM.
